Data as given in US6906205B2, “Spiro and dispiro 1,2,4-trioxolane antimalarials” (Medicines for Malaria Venture MMV, priority 2002, dated 2005).
In brackets after ≈: the same amount, converted by molar mass.

Tests used:
[1] = tested on: P. falciparum K1 strain (Thailand resistant to chloroquine); assay: semiautomated microdilution assay, [3H]-hypoxanthine incorporation, K1 strain; format: cell-based, Plasmodium falciparum; settings: K1 strain, 72 h incubation
In short: (§1)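 Compounds were tested against intraerythrocytic parasites taken from asynchronous stock cultures, using semiautomated microdilution. IC50 values were estimated by logit regression analysis.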

[2] = tested on: P. falciparum NF54 strain (sensitive to standard antimalarials); assay: semiautomated microdilution assay, [3H]-hypoxanthine incorporation, NF54 strain; format: cell-based, Plasmodium falciparum; settings: NF54 strain, 72 h incubation
In short: as §1

[3] = tested on: Schistosoma mansoni 21-day-old schistosomules; assay: effect on 21-day-old schistosomules in mice; format: in vivo; settings: single 200 mg/kg per os, female mice
Description: All groups were killed 4 weeks after treatment and the liver and intestine were removed and separated. The liver and intestine were compressed and alive male and female worms could be seen and counted. The effect of the compounds was evaluated by mean total and female worm burden.

[4] = tested on: ANKA strain of P. berghei; assay: single dose STI in vivo screen in infected mice; design: species or system Plasmodium berghei; settings: for Activity (%) po / Activity (%) sc / Activity (%) SSVpo: percent reduction in parasitemia day 3 post-infection, mice; for Activity (%) po / Survival (days) po: single 10 mg/kg po in 3% ethanol and 7% Tween 80; for Activity (%) sc / Survival (days) sc: single 10 mg/kg sc in 3% ethanol and 7% Tween 80; for Activity (%) SSVpo: single po dose in standard suspending vehicle (SSV); for Survival (days) po / Survival (days) sc / Survival (days) SSVpo: untreated control 5.6 ± 0.3; for Survival (days) SSVpo: single po dose in SSV
In short: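 Groups of 3-5 Moro SPF or NMRI mice infected with the ANKA strain of P. berghei received a single dose of trioxolane on day one post-infection. The compound was given in 3% ethanol and 7% Tween 80 or in SSV (0.5% w/v CMC, 0.5% v/v benzyl alcohol, 0.4% v/v Tween 80, 0.9% w/v sodium chloride in water). Antimalarial activity was scored as percent reduction in parasitemia on day three and as survival time versus untreated controls. Survival to day 30 counted as cure.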

[5] = tested on: Schistosoma mansoni adult schistosomes (49-day-old); assay: effect on adult schistosomes (49-day-old) in mice; format: in vivo; settings: for % reduction of adult worms growth at day 49 after per os application of 400 mg/kg, TWR (%) / adult worms at day 49, per os 400 mg/kg, DEAD WORM (%): single 400 mg/kg per os; for Tox (mice): infected mice
Description: Mice were infected with 100 Schistosoma mansoni cercariae […]. Each group was treated per os with OZ compounds at single doses of 200, 400, and 600 mg/kg. […] All groups were killed 4 weeks after treatment and the liver and intestine were removed and separated. The liver and intestine were compressed and alive male and female worms could be seen and counted.

SMILES	IC50 (ng/ml) K1 [1]	IC50 (ng/ml) NF54 [2]	% reduction of schistosomule growth at day 21 after per os application of 200 mg/kg, FWR (%) [3]	% reduction of schistosomule growth at day 21 after per os application of 200 mg/kg, TWR (%) [3]	Activity (%) po [4]	Activity (%) sc [4]	Activity (%) SSVpo [4]	Survival (days) po [4]	Survival (days) sc [4]	Survival (days) SSVpo [4]	% reduction of adult worms growth at day 49 after per os application of 400 mg/kg, TWR (%) [5]	adult worms at day 49, per os 400 mg/kg, DEAD WORM (%) [5]	Tox (mice) ([5]; 200 mg/kg per os)	Tox (mice) ([5]; 400 mg/kg per os)	% reduction of adult worms growth at day 49 after per os application of 200 mg/kg, TWR (%) ([5]; single 200 mg/kg per os)	adult worms at day 49, per os 200 mg/kg, DEAD WORM (%) ([5]; single 200 mg/kg per os)
C1C2CC3CC1CC(C2)C31OOC2(CCC3(CC2)OOC2(O3)C3CC4CC(C3)CC2C4)O1 (stereo not drawn) [OZ169]	15 ng/mL (≈ 33.7 nM)	> 10 ng/mL	0%	0%	98%	99.76%	22%	7.7 days	9.0 days	6.7 days						
CC1(C)CC(C)(C)CC2(C1)OOC1(O2)C2CC3CC(C2)CC1C3 (stereo not drawn) [OZ26]	3.1 ng/mL (≈ 9.67 nM)	5.0 ng/mL (≈ 15.6 nM)	40%	37%	88%	99.9%		7.0 days	9.7 days							
CC(C)(C)OC(=O)N1CCC2(CC1)OOC1(O2)C2CC3CC(C2)CC1C3 (stereo not drawn) [OZ35]	1.7 ng/mL (≈ 4.65 nM)	2.1 ng/mL (≈ 5.75 nM)	63%	73%	74%	99.98%		6.3 days	9.3 days							
CON=C1CC2CC3(CC2C1)OOC1(O3)C2CC3CC(C2)CC1C3 (stereo not drawn) [OZ37]			53%	63%	83%	99.98%		6.7 days	13 days							
CC(C)(C)CC(=O)N1CCC2(CC1)OOC1(O2)C2CC3CC(C2)CC1C3 (stereo not drawn) [OZ111]	0.92 ng/mL (≈ 2.53 nM)		68%	71%	98%	99.94%	79%	7.7 days	8.3 days	6.3 days						
Clc1ccc(C2(c3ccc(Cl)cc3)OOC3(O2)C2CC4CC(C2)CC3C4)cc1 (stereo not drawn) [OZ43]	11 ng/mL (≈ 26.4 nM)	7.5 ng/mL (≈ 18 nM)			99.97%	97%	18%	8.9 days	7.3 days	5.4 days	1%	0%				
c1ccc(C2CCC3(CC2)OOC2(O3)C3CCCC2CCC3)cc1 (stereo not drawn) [OZ67]	>100/>100 ng/ml	>100/>100 ng/ml			0/NA/0%	0/NA/0%		5.0/NA/5.0 days	5.0/NA/5.0 days		38%	0%				
O=C(OC[C@H]1CC[C@]2(CC1)OOC1(O2)C2CC3CC(C2)CC1C3)N1CCN(c2ccccc2)CC1 (stereo partly drawn) [OZ148]	17 ng/mL (≈ 35.2 nM)	16 ng/mL (≈ 33.2 nM)			38%	21%	58%	7.3 days	6.3 days	7.7 days	25%	0%				
O=C1COC2(CCC3(CC2)OOC2(O3)C3CC4CC(C3)CC2C4)OC1 (stereo not drawn) [OZ130]	0.62 ng/mL (≈ 1.77 nM)	0.94 ng/mL (≈ 2.68 nM)			98.8%	98.6%	98.9%	9.0 days	7.3 days	8.0 days	0%	8%				
O=C(CO)N1CCC2(CC1)OOC1(O2)C2CC3CC(C2)CC1C3 (stereo not drawn) [OZ83]	0.30 ng/mL (≈ 0.928 nM)	0.60 ng/mL (≈ 1.86 nM)			92%	99.8%	78%	7.0 days	8.0 days	6.3 days	7%	19%				
CCS(=O)(=O)N1CCC2(CC1)OOC1(O2)C2CC3CC(C2)CC1C3 (stereo not drawn) [OZ79]	0.38 ng/mL (≈ 1.06 nM)	0.81 ng/mL (≈ 2.27 nM)			85%	99.94%		7.0 days	9.3 days		4%	0%				
O=C(C[C@H]1CC[C@]2(CC1)OOC1(O2)C2CC3CC(C2)CC1C3)N1CCOCC1 (stereo partly drawn) [OZ189]	1.7 ng/mL (≈ 4.34 nM)	3.0 ng/mL (≈ 7.66 nM)			95%	98%	99.79%	9.3 days	10.7 days	9.0 days			*Tox: 2/3	Tox: 3/3 ^	0%	17%
CC(=O)N1CCC2(CC1)OOC1(O2)C2CC3CC(C2)CC1C3 (stereo not drawn) [OZ49]	0.82 ng/mL (≈ 2.67 nM)	0.93 ng/mL (≈ 3.03 nM)			81%	85%		6.7 days	7.3 days		17%	10%				
O=S1(=O)CCC2(CC1)OOC1(O2)C2CC3CC(C2)CC1C3 (stereo not drawn) [OZ50]	1.1 ng/mL (≈ 3.5 nM)	1.2 ng/mL (≈ 3.82 nM)			77%	97%	57%	7.0 days	7.3 days	5.7 days	12%	4%				
c1ccc(C2(c3ccccn3)OOC3(O2)C2CC4CC(C2)CC3C4)nc1 (stereo not drawn) [OZ81]	>100/>100 ng/ml	>100/>100 ng/ml			0/NA/0%	0/NA/0%		5.3 days	5.0 days		28%	0%				
